Legend:
Assay in all cases: KinomeScan kinase profiling
Format in all cases: binding
p38-delta = target: T1, p38-delta (Homo sapiens, UniProt O15264)
T1 construct: host or cells: E. coli host derived from the BL21 strain, infected with T7 phage
In short: (§1)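 Kinases were expressed as T7 phage fusions in a BL21-derived E. coli host and the cleared lysates were used. Ligand beads were blocked with biotin and buffer (1% BSA, 0.05% Tween 20, 1 mM DTT). Compounds came from 40× DMSO stocks, and phage in the eluates was titred by qPCR.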

STK35 = target: T2, STK35 (Homo sapiens, UniProt Q8TDR2)
T2 construct: host or cells: E. coli host derived from the BL21 strain, T7 phage lysate
In short: as §1

EPHB4 = target: T3, EPHB4 (Homo sapiens, UniProt P54760)
T3 construct: host or cells: E. coli host derived from BL21, T7 phage lysate
In short: as §1

MYO3A = target: T4, MYO3A (Homo sapiens, UniProt Q8NEV4)
T4 construct: host or cells: T7 phage in E. coli host derived from BL21
In short: as §1

PFTK1 = target: T5, PFTK1 (Homo sapiens, UniProt O94921)
T5 construct: host or cells: E. coli host derived from the BL21 strain, infected with T7 phage
In short: as §1

DLK = target: T6, DLK (Homo sapiens, UniProt Q12852)
T6 construct: purchased Ambit Biosciences Corp (KinomeScan); host or cells: T7 phage in E. coli host derived from BL21
In short: as §1

CAMK2A = target: T7, CAMK2A (Homo sapiens, UniProt Q9UQM7)
T7 construct: purchased Ambit Biosciences Corp (KinomeScan); host or cells: E. coli host derived from the BL21 strain, T7 phage
In short: as §1

ERK1 = target: T8, ERK1 (Homo sapiens, UniProt P27361)
T8 construct: host or cells: E. coli host derived from BL21, T7 phage lysate
In short: as §1

PCTK1 = target: T9, PCTK1 (Homo sapiens, UniProt Q00536)
T9 construct: host or cells: E. coli host derived from the BL21 strain, infected with T7 phage
In short: as §1

PAK1 = target: T10, PAK1 (Homo sapiens, UniProt Q13153)
T10 construct: host or cells: E. coli host derived from the BL21 strain, infected with T7 phage
In short: as §1

PRKCH = target: T11, PRKCH (Homo sapiens, UniProt P24723)
T11 construct: purchased Ambit Biosciences Corp (KinomeScan); host or cells: E. coli host derived from BL21, infected with T7 phage
In short: as §1

NEK7 = target: T12, NEK7 (Homo sapiens, UniProt Q8TDX7)
T12 construct: host or cells: T7 phage in E. coli host derived from BL21
In short: as §1

PKN2 = target: T13, PKN2 (Homo sapiens, UniProt Q16513)
T13 construct: purchased Ambit Biosciences Corp (KinomeScan); host or cells: E. coli host derived from BL21, infected with T7 phage
In short: as §1

CAMK2D = target: T14, CAMK2D (Homo sapiens, UniProt Q13557)
T14 construct: purchased Ambit Biosciences Corp (KinomeScan); host or cells: E. coli host derived from the BL21 strain, T7 phage
In short: as §1

EPHA5 = target: T15, EPHA5 (Homo sapiens, UniProt P54756)
T15 construct: host or cells: E. coli host derived from BL21, T7 phage lysate
In short: as §1

SIK = target: T16, SIK (Homo sapiens, UniProt P57059)
T16 construct: host or cells: E. coli host derived from the BL21 strain, T7 phage lysate
In short: as §1

p38-alpha = target: T17, p38-alpha (Homo sapiens, UniProt Q16539)
T17 construct: host or cells: E. coli host derived from the BL21 strain, infected with T7 phage
In short: as §1

TTK = target: T18, TTK (Homo sapiens, UniProt P33981)
T18 construct: purchased Ambit Biosciences Corp (KinomeScan); host or cells: E. coli host derived from the BL21 strain (T7 phage lysate)
In short: as §1

AURKA = target: T19, AURKA (Homo sapiens, UniProt O14965)
T19 construct: purchased Ambit Biosciences Corp (KinomeScan); host or cells: E. coli host derived from the BL21 strain, T7 phage
In short: as §1

EPHB2 = target: T20, EPHB2 (Homo sapiens, UniProt P29323)
T20 construct: host or cells: E. coli host derived from BL21, T7 phage lysate
In short: as §1

CSF1R = target: T21, CSF1R (Homo sapiens, UniProt P07333)
T21 construct: host or cells: T7 phage in E. coli (BL21-derived)
In short: as §1

ZAP70 = target: T22, ZAP70 (Homo sapiens, UniProt P43403)
T22 construct: host or cells: E. coli host derived from the BL21 strain, infected with T7 phage
In short: as §1

BRSK1 = target: T23, BRSK1 (Homo sapiens, UniProt Q8TDC3)
T23 construct: purchased Ambit Biosciences Corp (KinomeScan); host or cells: E. coli host derived from the BL21 strain, T7 phage
In short: as §1

BMPR1B = target: T24, BMPR1B (Homo sapiens, UniProt O00238)
T24 construct: purchased Ambit Biosciences Corp (KinomeScan); host or cells: E. coli host derived from the BL21 strain, T7 phage
In short: as §1

T9 sequence (Q00536 whole entry): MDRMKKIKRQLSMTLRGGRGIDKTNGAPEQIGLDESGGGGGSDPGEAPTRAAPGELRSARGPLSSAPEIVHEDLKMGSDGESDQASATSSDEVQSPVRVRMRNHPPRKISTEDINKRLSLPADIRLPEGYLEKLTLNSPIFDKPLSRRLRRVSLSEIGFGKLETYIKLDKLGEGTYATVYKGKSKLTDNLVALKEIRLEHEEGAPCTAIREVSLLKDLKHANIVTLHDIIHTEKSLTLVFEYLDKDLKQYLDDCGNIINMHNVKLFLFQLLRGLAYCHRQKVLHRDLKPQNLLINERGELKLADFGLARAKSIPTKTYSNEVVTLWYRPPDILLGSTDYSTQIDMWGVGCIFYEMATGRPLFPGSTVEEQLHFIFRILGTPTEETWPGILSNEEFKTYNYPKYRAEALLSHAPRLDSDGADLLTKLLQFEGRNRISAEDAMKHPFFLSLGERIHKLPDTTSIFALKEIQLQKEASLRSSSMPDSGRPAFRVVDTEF
T23 sequence (Q8TDC3 whole entry): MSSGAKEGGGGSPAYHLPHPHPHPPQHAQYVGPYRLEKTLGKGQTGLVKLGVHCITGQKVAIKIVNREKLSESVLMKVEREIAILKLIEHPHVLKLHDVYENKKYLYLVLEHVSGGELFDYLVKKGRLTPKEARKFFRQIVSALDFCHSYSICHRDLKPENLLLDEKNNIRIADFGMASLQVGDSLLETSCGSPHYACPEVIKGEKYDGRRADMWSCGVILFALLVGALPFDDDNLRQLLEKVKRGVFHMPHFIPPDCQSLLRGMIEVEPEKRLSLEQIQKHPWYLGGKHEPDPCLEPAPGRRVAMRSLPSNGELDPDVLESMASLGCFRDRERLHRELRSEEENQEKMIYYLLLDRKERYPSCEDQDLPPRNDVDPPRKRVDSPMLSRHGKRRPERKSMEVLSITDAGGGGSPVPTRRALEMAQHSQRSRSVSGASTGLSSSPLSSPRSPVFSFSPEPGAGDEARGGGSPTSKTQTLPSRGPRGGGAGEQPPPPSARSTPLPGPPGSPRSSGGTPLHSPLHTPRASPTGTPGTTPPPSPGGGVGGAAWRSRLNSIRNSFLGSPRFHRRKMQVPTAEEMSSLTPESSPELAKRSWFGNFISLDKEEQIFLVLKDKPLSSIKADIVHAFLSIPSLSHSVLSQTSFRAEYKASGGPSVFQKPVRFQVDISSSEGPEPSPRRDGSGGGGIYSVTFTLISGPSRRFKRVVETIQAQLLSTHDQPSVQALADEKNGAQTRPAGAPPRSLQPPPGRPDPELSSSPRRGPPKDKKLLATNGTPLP
T20 sequence (P29323 19-1055): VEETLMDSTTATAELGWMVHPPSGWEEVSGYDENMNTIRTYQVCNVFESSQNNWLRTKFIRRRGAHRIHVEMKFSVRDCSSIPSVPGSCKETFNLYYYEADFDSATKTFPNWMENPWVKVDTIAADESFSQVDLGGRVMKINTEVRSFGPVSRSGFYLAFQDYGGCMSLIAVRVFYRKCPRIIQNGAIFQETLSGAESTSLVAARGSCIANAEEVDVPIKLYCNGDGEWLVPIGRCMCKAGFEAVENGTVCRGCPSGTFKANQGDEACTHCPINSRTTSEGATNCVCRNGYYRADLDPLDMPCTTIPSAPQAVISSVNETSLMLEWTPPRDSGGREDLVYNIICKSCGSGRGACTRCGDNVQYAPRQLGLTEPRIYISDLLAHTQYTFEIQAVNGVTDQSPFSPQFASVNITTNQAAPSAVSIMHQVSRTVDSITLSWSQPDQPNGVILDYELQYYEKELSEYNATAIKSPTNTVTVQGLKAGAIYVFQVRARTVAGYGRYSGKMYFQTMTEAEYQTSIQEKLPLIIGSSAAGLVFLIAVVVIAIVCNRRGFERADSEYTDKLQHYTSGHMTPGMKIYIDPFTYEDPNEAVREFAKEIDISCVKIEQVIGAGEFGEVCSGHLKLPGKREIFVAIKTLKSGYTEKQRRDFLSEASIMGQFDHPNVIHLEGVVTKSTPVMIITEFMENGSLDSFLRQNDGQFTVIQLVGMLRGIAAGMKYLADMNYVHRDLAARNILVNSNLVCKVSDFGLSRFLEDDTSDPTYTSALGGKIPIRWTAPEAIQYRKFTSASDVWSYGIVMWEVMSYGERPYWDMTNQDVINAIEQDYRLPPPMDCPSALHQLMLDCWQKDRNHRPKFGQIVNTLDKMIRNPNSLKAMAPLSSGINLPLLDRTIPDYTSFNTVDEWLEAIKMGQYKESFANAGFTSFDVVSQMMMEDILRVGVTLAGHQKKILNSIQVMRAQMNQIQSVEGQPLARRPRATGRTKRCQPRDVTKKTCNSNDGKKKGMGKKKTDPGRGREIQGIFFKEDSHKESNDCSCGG
T14 sequence (Q13557 whole entry): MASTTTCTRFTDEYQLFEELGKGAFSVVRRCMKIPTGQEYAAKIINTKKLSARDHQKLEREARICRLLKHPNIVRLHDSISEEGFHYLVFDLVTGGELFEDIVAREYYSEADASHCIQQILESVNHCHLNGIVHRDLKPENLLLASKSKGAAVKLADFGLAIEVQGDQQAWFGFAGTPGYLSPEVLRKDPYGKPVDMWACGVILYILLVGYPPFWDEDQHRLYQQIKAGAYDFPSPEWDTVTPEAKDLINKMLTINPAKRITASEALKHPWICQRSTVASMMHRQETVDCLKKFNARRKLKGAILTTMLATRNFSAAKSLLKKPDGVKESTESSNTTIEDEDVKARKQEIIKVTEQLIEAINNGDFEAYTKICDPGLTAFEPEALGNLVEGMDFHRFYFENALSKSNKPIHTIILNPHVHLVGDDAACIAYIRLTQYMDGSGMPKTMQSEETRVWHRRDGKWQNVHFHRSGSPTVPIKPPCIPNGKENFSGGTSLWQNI
T11 sequence (P24723 whole entry): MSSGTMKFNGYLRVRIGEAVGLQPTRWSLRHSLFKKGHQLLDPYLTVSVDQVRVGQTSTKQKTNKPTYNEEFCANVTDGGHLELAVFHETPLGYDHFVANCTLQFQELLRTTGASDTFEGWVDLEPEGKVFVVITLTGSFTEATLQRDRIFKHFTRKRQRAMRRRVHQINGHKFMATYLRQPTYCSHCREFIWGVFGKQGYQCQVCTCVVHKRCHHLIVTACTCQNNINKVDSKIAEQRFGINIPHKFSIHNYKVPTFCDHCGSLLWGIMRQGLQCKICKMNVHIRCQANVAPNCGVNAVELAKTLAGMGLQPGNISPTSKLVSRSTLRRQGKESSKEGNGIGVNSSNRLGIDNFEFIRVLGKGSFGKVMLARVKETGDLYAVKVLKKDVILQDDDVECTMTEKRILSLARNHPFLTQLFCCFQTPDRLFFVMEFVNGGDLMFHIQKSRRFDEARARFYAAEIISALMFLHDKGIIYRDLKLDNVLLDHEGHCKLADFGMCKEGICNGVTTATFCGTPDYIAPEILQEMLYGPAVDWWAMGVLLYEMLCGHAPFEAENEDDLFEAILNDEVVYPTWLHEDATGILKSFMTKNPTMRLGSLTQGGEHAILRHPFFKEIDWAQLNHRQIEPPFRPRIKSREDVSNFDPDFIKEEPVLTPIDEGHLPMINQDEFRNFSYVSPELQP
T21 sequence (P07333 20-972): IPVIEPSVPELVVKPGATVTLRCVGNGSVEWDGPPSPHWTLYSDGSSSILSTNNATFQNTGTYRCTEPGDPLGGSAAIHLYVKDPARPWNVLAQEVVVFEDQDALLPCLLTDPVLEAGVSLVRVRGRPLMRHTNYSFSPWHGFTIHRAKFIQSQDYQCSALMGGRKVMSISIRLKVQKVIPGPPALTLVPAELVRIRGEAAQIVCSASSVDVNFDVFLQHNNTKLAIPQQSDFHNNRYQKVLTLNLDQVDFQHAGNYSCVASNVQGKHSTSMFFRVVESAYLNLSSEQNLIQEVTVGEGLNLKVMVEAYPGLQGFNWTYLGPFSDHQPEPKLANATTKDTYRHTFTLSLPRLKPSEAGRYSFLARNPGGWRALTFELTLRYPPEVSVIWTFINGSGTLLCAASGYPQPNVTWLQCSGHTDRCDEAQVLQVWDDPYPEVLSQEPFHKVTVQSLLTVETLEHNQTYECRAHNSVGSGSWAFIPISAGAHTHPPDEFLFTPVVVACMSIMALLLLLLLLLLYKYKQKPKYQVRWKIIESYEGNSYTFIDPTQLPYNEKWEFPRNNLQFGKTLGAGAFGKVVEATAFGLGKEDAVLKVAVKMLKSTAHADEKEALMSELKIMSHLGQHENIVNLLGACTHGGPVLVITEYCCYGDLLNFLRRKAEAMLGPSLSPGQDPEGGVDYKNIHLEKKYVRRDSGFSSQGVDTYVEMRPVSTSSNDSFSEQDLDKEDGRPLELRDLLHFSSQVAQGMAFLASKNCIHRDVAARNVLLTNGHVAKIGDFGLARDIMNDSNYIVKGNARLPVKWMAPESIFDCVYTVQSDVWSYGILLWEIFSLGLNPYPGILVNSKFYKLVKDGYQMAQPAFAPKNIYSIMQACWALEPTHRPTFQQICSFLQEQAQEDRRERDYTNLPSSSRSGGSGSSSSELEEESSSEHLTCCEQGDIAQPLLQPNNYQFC
T8 sequence (P27361 whole entry): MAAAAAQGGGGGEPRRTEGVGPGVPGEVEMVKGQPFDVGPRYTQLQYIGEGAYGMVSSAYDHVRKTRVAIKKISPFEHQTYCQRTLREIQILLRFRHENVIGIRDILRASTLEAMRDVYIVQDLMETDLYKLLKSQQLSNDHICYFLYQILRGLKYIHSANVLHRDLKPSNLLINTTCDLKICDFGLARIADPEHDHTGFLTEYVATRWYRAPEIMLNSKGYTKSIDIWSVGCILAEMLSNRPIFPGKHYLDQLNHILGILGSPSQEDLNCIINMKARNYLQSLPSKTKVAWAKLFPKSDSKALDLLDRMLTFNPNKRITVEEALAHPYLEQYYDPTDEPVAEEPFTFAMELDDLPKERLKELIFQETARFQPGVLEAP

## C#Cc1cccc(Nc2ncnc3cc(OC)c(OCCCN4CCOCC4)cc23)c1 [NRC-2694, N-(3-ethylnylphenyl)-7-methoxy-6-[3-(4-morpholinyl)propoxy]-4-quinazolinamine]
p38-delta
  % Ctrl @ 10000 nM: 100 % Ctrl
STK35
  % Ctrl @ 10000 nM: 52 % Ctrl
EPHB4
  % Ctrl @ 10000 nM: 39 % Ctrl
MYO3A
  % Ctrl @ 10000 nM: 70 % Ctrl
PFTK1
  % Ctrl @ 10000 nM: 71 % Ctrl
DLK
  % Ctrl @ 10000 nM: 92 % Ctrl
CAMK2A
  % Ctrl @ 10000 nM: 63 % Ctrl
ERK1
  % Ctrl @ 10000 nM: 98 % Ctrl
PCTK1
  % Ctrl @ 10000 nM: 100 % Ctrl
PAK1
  % Ctrl @ 10000 nM: 74 % Ctrl
PRKCH
  % Ctrl @ 10000 nM: 83 % Ctrl
NEK7
  % Ctrl @ 10000 nM: 78 % Ctrl
PKN2
  % Ctrl @ 10000 nM: 31 % Ctrl
CAMK2D
  % Ctrl @ 10000 nM: 35 % Ctrl
EPHA5
  % Ctrl @ 10000 nM: 86 % Ctrl
SIK
  % Ctrl @ 10000 nM: 53 % Ctrl
p38-alpha
  % Ctrl @ 10000 nM: 89 % Ctrl
TTK
  % Ctrl @ 10000 nM: 48 % Ctrl
AURKA
  % Ctrl @ 10000 nM: 100 % Ctrl
EPHB2
  % Ctrl @ 10000 nM: 83 % Ctrl
CSF1R
  % Ctrl @ 10000 nM: 50 % Ctrl
ZAP70
  % Ctrl @ 10000 nM: 100 % Ctrl
BRSK1
  % Ctrl @ 10000 nM: 53 % Ctrl
BMPR1B
  % Ctrl @ 10000 nM: 78 % Ctrl

From patent US9050341B2, “Methods of treating drug resistant and other tumors by administering 6,7-dialkoxy quinazoline derivatives” (NATCO PHARMA LIMITED, priority 2009, dated 2015)
